Data set [1] deals with Sphingosine 1-phosphate receptor 2 (Homo sapiens, UniProt O95136). The data set can be described thus: Late-stage fluorescence-based dose-response cell-based assay to identify agonists of the Sphingosine 1-Phosphate Receptor 4 (S1P4): Sphingosine 1-Phosphate Receptor 2 (S1P2) counterscreen assay. [Related pubchem assays (depositor defined):AID1509, AID1523, AID1563, AID1686, AID1701, AID1801, AID463107, AID463225, AID504400]. The data set is classed as functional. Background: Counterscreens check selectivity or assay interference.
Sequence of Sphingosine 1-phosphate receptor 2 (O95136 whole entry): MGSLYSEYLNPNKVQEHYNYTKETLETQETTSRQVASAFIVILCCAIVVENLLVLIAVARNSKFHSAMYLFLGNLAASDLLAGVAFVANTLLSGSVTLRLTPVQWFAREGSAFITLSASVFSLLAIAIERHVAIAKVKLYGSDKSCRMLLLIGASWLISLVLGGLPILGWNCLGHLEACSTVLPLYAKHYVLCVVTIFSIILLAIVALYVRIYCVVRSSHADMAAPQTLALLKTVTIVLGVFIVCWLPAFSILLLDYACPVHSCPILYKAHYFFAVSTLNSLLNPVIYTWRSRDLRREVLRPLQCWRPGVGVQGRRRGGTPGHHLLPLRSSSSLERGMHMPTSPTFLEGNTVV

Data set [2] concerns the target T1, Sphingosine 1-phosphate receptor 1 (Homo sapiens, UniProt P21453). The data set is described as follows: Fluorescence-based counterscreen assay for S1P4 agonists: Cell-based dose response high throughput screening assay to identify agonists of the Sphingosine 1-Phosphate Receptor 1 (S1P1). [Related pubchem assays (depositor defined):AID1509, AID1523, AID1801, AID463107, AID463118, AID463119, AID463122, AID463123, AID463129, AID463225, AID504400, AID504460]. The data set is classed as functional.

For data set [3], the target named is Sphingosine 1-phosphate receptor 5 (Homo sapiens, UniProt Q9H228). The data set can be described thus: Late-stage fluorescence-based dose-response cell-based assay to identify agonists of the Sphingosine 1-Phosphate Receptor 4 (S1P4): Sphingosine 1-Phosphate Receptor 5 (S1P5) counterscreen assay. [Related pubchem assays (depositor defined):AID1509, AID1523, AID1563, AID1686, AID1701, AID1801, AID463107, AID463225, AID504400]. The class given is functional.

For data set [4], the target named is Sphingosine 1-phosphate receptor 3 (Homo sapiens, UniProt Q99500). The data set can be described thus: Late-stage fluorescence-based dose-response cell-based assay to identify agonists of the Sphingosine 1-Phosphate Receptor 4 (S1P4): Sphingosine 1-Phosphate Receptor 3 (S1P3) counterscreen assay. [Related pubchem assays (depositor defined):AID1509, AID1523, AID1563, AID1686, AID1701, AID1801, AID463107, AID463225, AID504400]. The data set is classed as functional.
Sequence of Sphingosine 1-phosphate receptor 3 (Q99500 whole entry): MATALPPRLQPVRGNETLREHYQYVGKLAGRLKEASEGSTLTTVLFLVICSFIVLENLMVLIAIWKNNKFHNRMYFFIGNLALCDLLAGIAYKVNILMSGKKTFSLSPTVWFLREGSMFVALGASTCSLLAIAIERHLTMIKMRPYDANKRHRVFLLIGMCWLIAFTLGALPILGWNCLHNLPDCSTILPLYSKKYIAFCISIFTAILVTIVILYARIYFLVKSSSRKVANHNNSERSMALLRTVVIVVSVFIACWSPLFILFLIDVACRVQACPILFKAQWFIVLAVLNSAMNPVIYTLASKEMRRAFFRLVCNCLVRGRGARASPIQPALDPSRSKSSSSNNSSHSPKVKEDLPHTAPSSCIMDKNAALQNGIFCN

The target of data set [5] is T1, Sphingosine 1-phosphate receptor 1. The data set can be described thus: Late-stage fluorescence-based dose-response cell-based assay to identify agonists of the Sphingosine 1-Phosphate Receptor 4 (S1P4): Sphingosine 1-Phosphate Receptor 1 (S1P1) counterscreen assay. [Related pubchem assays (depositor defined):AID1509, AID1523, AID1563, AID1686, AID1701, AID1801, AID463107, AID463225, AID504400]. The class given is functional.

Data set [6] concerns the target Sphingosine 1-phosphate receptor 4 (Homo sapiens, UniProt O95977). The data set can be described thus: Fluorescence dose response cell-based high throughput screening assay for agonists of the Sphingosine 1-Phosphate Receptor 4 (S1P4). [Related pubchem assays: 1509 (Primary screen.), 1523 (Confirmation screen in triplicates.)]. The class given is functional.
The next data set has as its target Cytochrome P450 2D6 (Homo sapiens, UniProt P10635).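 Note: CYP2D6 member of a cytochrome P450 panel assay.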
For another data set, the target named is Cytochrome P450 2C19 (Homo sapiens, UniProt P33261). The data set is described as follows: Cytochrome panel assay with activity outcomes. Panel member name: p450-cyp2c19 Compounds with AC50 equal or less than 10 uM are considered active. The data set is classed as functional.
Sequence of Cytochrome P450 2C19 (P33261 whole entry): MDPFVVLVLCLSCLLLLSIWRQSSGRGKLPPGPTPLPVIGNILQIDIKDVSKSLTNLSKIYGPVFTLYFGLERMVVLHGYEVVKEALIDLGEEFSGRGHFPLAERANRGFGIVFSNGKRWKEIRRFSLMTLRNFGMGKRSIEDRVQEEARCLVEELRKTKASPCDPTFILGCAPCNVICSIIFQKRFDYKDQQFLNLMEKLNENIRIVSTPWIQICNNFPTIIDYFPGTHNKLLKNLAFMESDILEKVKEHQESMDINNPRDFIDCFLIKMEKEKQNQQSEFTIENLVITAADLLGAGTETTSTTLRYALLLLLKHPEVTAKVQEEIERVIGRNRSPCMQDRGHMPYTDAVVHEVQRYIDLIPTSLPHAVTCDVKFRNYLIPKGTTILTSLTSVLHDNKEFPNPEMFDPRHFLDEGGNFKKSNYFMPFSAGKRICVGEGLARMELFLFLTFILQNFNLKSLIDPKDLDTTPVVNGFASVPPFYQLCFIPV
For data set [7], the target named is Lysine-specific demethylase 4A (Homo sapiens, UniProt O75164). The data set is described as follows: inhibition of JMJD2A H3K9me3 demethylation – biochemical, DELFIA europium, cherry-picked samples, selectivity assay for GASC-1 inhibitor project, dose response (AID 488840).
Sequence of Lysine-specific demethylase 4A (O75164 whole entry): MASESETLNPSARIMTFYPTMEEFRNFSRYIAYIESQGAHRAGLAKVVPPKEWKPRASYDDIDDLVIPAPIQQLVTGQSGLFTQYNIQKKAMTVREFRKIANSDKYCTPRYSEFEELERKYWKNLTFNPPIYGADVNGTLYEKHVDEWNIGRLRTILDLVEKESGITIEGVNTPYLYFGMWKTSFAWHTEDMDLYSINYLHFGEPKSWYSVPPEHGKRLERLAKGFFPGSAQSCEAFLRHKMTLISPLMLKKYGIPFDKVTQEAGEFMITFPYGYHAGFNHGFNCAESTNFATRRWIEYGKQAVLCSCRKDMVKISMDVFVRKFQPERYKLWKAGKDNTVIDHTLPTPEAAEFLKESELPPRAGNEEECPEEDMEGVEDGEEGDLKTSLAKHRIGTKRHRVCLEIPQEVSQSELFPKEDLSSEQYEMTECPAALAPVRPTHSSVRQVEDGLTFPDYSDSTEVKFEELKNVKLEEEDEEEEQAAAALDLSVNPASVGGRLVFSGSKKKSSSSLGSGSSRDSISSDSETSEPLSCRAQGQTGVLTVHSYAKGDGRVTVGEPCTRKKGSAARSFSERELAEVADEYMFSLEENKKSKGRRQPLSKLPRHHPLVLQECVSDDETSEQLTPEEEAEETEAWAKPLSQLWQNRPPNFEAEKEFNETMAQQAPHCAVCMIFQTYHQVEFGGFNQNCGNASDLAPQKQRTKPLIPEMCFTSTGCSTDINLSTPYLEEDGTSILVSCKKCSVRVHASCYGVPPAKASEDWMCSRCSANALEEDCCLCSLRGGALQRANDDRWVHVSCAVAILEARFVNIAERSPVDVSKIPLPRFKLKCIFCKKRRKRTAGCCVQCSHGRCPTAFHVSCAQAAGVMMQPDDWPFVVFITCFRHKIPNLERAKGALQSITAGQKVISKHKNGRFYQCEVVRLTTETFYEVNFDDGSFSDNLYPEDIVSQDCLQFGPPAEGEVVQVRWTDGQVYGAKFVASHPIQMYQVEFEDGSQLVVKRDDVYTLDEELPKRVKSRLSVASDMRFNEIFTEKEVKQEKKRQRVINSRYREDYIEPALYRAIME
For data set [8], the target named is G-protein coupled receptor 35 (Homo sapiens, UniProt Q9HC97). The data set is described as follows: SAR Analysis for the identification of Selective Antagonists of ERK1/2 Activity in GPR35-Overexpressing U2OS Cells. [Related pubchem assays: 2079, 2058 ]. The class given is functional, cell-based.
Sequence of G-protein coupled receptor 35 (Q9HC97 whole entry): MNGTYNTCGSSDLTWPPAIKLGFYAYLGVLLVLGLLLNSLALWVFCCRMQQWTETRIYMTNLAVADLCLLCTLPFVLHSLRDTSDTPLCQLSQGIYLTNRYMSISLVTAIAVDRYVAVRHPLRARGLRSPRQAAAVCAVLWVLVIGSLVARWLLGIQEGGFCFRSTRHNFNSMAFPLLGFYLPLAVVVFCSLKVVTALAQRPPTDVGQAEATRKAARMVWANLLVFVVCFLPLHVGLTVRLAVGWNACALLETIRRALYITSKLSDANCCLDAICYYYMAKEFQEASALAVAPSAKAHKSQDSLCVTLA
For data set [9], the target named is G-protein coupled receptor 55 (Homo sapiens, UniProt Q9Y2T6). The data set is described as follows: blockers of GPR55 signalling, imaged – imaging, image-based, counter-screen for GPR35 antagonist project, SAR follow-up (AID 2397). The data set is classed as functional.
Sequence of G-protein coupled receptor 55 (Q9Y2T6 whole entry): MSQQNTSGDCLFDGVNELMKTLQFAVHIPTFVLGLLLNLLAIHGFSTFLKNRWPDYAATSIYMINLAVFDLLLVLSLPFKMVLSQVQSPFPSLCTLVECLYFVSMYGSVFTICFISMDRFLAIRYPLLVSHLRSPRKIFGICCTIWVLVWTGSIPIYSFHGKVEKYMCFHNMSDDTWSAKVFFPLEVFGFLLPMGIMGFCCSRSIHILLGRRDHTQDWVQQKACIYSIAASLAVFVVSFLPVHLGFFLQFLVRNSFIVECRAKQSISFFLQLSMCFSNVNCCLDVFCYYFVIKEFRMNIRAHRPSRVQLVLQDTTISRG
Data set [10] has as its target Glyceraldehyde-3-phosphate dehydrogenase (Homo sapiens, UniProt P04406).
The target in data set [11] is T2, Dual specificity protein phosphatase 6 (Rattus norvegicus, UniProt Q64346).
T2 sequence (Q64346 whole entry): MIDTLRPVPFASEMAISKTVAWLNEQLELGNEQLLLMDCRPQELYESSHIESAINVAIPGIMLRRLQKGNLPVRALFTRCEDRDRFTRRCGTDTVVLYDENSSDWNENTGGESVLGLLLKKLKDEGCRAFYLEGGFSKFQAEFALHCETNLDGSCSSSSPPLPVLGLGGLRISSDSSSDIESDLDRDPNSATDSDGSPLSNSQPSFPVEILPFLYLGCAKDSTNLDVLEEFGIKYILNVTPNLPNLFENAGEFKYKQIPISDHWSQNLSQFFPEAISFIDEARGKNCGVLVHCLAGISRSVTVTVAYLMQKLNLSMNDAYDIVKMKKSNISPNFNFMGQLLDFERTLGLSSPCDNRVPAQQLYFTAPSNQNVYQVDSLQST

Data set [12] deals with T2, Dual specificity protein phosphatase 6. The class given is functional.
In data set [13] the target is Tyrosine-protein phosphatase non-receptor type 7 (Homo sapiens, UniProt P35236). The class given is functional.
Sequence of Tyrosine-protein phosphatase non-receptor type 7 (P35236 whole entry): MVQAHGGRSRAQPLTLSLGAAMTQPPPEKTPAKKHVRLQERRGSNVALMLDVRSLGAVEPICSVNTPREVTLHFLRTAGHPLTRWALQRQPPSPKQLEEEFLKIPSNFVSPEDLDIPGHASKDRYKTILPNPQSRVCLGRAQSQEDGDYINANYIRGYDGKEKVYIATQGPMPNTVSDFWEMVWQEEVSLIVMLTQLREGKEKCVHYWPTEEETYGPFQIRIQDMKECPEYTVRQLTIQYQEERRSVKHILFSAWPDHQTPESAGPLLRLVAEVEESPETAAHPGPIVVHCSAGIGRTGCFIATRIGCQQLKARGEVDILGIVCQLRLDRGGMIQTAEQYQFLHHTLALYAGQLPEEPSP
A short description of data set [14]: Luminescence Cell-Based Dose Retest to Confirm Inhibitors of Cancer Stem Cells. [Related pubchem assays (depositor defined):AID2717, AID2721]. The class given is functional. To be noted: Homo sapiens.
Another data set concerns the target Cytochrome P450 2C9 (Homo sapiens, UniProt P11712).
Data set [15] in a line: viability loss of HMLE_sh_eGFP cells – cell-based, luminescence, counter-screen for HMLE_sh_ECad selective toxicity project, dose response (AID 463074).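 Note: HMLE human mammary epithelial cells expressing control shRNA against eGFP.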 The data set is classed as functional, Homo sapiens.

The text below walks through data of ChEMBL document CHEMBL1201862, “PubChem BioAssay data set” (2004).

Calls of active or inactive are those of the source. Bounds are passed on as bounds.

T1 sequence (P21453 whole entry): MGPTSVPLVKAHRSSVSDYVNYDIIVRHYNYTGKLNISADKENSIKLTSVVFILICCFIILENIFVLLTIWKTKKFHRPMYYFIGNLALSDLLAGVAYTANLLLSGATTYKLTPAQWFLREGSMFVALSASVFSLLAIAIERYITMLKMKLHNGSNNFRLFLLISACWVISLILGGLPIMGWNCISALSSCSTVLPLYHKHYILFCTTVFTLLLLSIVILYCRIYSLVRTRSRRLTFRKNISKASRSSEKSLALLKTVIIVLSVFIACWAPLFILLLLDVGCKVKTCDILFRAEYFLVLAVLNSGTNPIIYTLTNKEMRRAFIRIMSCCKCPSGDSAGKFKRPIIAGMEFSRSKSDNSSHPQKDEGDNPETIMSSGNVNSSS
Sequence of Sphingosine 1-phosphate receptor 4 (O95977 whole entry): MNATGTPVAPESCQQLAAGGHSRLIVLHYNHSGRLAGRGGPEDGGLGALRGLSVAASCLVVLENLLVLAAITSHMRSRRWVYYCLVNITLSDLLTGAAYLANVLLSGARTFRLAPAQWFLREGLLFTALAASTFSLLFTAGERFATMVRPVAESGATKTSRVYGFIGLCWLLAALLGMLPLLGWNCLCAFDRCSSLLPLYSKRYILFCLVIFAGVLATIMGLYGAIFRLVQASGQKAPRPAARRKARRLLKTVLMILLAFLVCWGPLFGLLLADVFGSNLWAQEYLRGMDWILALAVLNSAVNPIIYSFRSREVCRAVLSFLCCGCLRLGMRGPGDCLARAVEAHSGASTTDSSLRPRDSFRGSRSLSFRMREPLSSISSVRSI
Sequence of Glyceraldehyde-3-phosphate dehydrogenase (P04406 whole entry): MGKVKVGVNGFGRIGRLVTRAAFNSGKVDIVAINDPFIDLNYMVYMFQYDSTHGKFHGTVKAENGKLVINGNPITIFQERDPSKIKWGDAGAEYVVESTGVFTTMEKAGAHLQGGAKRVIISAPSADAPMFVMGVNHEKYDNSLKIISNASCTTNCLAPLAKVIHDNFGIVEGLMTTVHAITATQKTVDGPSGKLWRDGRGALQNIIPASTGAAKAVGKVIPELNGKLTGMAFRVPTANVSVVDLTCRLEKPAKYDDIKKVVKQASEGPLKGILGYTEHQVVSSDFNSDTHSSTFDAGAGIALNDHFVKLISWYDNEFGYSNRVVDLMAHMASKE
Sequence of Cytochrome P450 2C9 (P11712 whole entry): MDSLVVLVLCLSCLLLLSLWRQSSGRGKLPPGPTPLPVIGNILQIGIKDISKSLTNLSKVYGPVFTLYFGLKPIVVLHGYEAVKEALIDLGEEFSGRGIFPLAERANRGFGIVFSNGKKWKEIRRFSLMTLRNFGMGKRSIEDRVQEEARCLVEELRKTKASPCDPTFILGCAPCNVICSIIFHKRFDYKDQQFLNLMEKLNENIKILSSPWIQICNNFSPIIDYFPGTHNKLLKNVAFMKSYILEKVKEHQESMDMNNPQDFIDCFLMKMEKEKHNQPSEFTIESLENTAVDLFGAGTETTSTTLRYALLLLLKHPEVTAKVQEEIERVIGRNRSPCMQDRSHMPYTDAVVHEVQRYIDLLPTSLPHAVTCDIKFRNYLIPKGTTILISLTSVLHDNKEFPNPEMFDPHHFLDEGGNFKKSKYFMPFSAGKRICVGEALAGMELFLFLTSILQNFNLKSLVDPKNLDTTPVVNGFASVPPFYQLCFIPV

Broadly, the EC50 is the concentration giving half of the maximal effect. In the case of `Cc1ccc(OCCOc2ccc(Cl)cc2Cl)c([N+](=O)[O-])n1`, the EC50 is > 50 µM (inactive) in data set [1]; > 49.8 µM (inactive) in data set [2]; > 50 µM (inactive) in data set [3]; > 50 µM (inactive) in data set [4]; > 50 µM (inactive) in data set [5]; 0.529 µM (active) in data set [6].
For orientation: AC50 means the concentration at which the activity in the assay is half-maximal. With `CC1=C(C(=O)O)N2C(=O)[C@@H](NC(=O)[C@@H](N)C3=CCC=CC3)[C@@H]2SC1`, the AC50 result at Cytochrome P450 2D6 and at Cytochrome P450 2C19 was “inconclusive” throughout.
Take `CN(C(=O)c1ccc(NC(=O)Cc2ccc(NC(=O)C3CCN(C(=O)C4CCC4)CC3)cc2)cc1)C1CC1`: the AC50 in data set [7] was > 60 µM (inactive).
Broadly, the IC50 is the point on the concentration scale where inhibition reaches its midpoint. For `O=C(Nc1ccc2nc(SCc3ccccc3)sc2c1)c1ccccc1C(=O)N1CCOCC1`, the results for the IC50 in data set [8] and in data set [9] were 4.58 µM (active) and 12.3 µM (inactive), respectively.
For `CCC(CC)c1nnc(NC(=O)Cc2cccs2)s1`, the IC50 in [10] is 99.7 µM (active); in data set [11], > 100 µM (inactive); in data set [12] it was > 100 µM (inactive); in data set [13] it was 88 µM (active).
As to `Cc1nn(-c2ccc(F)cc2)c(Cl)c1/C=C(\CCC(=O)O)c1nc2ccccc2s1`, the AC50 in [14] was 18.7 µM (active); on Cytochrome P450 2C9, 39.8 µM (inconclusive); in data set [15], 23.5 µM (active).
